# Results as given in article PMC11899342, “Novel Triazeneindole Antibiotics: Synthesis and Hit-to-Lead Optimization” (International Journal of Molecular Sciences, 2025).
# Where two headings read alike, the source gives them in different places.
# What was measured:
# [1] = system: HepG2 human liver carcinoma cells; assay: MTT cytotoxicity (hepatotoxicity) on HepG2; type: cell-based; details: for IC50: Homo sapiens, HepG2, 24 h
# Method: (§1) The primary screening of 22 substances was performed on human embryonic fibroblasts (HEFs). […] The HepG2 cell line was obtained from the American Type Culture Collection (ATCC cat. # HB-8065). The primary HEF cells (normal human embryonic fibroblasts) were derived from human embryonic stem cells. The cells were cultured in DMEM/F12 (1:1) medium containing 10% fetal bovine serum (Invitrogen, Carlsbad, CA, USA) at 37 °C and 5% CO2, according to standard mammalian tissue culture protocols and sterile technique. […] The incubation time with the substance was 24 h for all substances and cell lines. Cell detachment by trypsin, centrifugation, and counting in a hemocytometer were performed 16 h before the addition of the substance. For correct counting of the HepG2 cells, the cell suspension was passed through a syringe needle to get rid of cell aggregates. The cells were placed in the wells of a 96-well plate. The number of cells was selected according to the properties of the cell line and the final optical density in the experiment. Fibroblasts and hepatocytes were used in the amount of 10 thousand cells per well in 100 μL of DMEM/F12 medium supplemented with 10% fetal bovine serum. The substances were added to 100 µL of medium in the wells so that the final concentrations were 50, 25, 12.5, 6.25, 3.125, and 1.62 mg/L. The final well volume was 200 µL. The medium containing fetal bovine serum, without added substances, was used as a negative control. After 24 h, excessive amounts of medium were discarded. A total of 30 µL of MTT solution (5 mg/mL in PBS) was added to each well. After the precipitation of formazan crystals (3 h incubation), they were dissolved using 100 μL of dimethyl sulfoxide. The optical density (OD) was measured at 570 nm using a microplate reader (Eppendorf). For every condition, the cell viabilities were assessed in at least three independent experiments for every cell culture. Cell survival was calculated using the following formula:(OD of treated cells − OD blank)/(OD of control cells − OD blank) × 100%, where OD blank represents the OD values in wells without cells but with the addition of the MTT and DMSO solutions. The results were presented in the form of cytotoxicity curves, and the graphs were also plotted in a Microsoft Excel program; the calculation of the IC50 half-maximal inhibition concentration values was performed in a GraphPad Prism 6.0 (GraphPad Software Inc., San Diego, CA, USA) program, based on the equations of the cytotoxicity curves.
# [2] = system: human embryonic fibroblasts (HEFs); assay: MTT cytotoxicity on human embryonic fibroblasts; type: cell-based; details: 24 h, ND = non-toxic in tested concentrations (up to 50 mg/L); for IC50: Homo sapiens, Fibroblast
# Method: as §1
# MRSA = assay: Selectivity index (average IC50 on eukaryotic cells / average MIC on MRSA); type: cell-based, Staphylococcus aureus; details: average IC50 on eukaryotic cells divided by average MIC on MRSA
# Method: The selectivity index was calculated for each compound as the average IC50 on eukaryotic cells divided by the average MIC on MRSA (Table 2).
# [3] = Solubility in water by HPLC; type: physicochemical; details: for solubility at 5 min: water, kinetic from dmso stock
# Method: The solubility of the compounds in water was assessed using HPLC analysis. Two 1.0 mg portions of the test compounds were dissolved in 10 μL of dimethyl sulfoxide; 1.0 mL of acetonitrile was added to one sample (standard), and 1.0 mL of water was added to the second sample (tested sample). Both vials were mixed in a shaker for 5 min, then centrifuged at 10,000 rpm for 5 min. The supernatants were collected and analyzed using Agilent 1290 Infinity (Agilent Technologies, Santa Clara, CA, USA) with a YMC-Triart C18 50 × 2.0 mm, 1.9 μm column. The concentration of the test compound in water was determined by comparing the peak areas of the standard (concentration 1.0 mg/mL) and the tested sample.
# MRSA clinical isolates = assay: MIC by broth microdilution against multidrug-resistant MRSA clinical isolates; type: cell-based, Staphylococcus aureus; details: for MIC Range Against 8 MRSA Strains: 8 multidrug-resistant MRSA clinical isolates, tested 0.125-1 mg/L; for MIC: Staphylococcus aureus, MRSA
# Method: Clinical MRSA isolates with multidrug resistance were obtained from the collection of the Research Institute of Antimicrobial Chemotherapy, Smolensk State Medical Academy.
# The MICs were determined using a broth microdilution method according to [42]. Briefly, serial dilutions of the tested compounds in 50 µL of Mueller Hinton broth (BD) were prepared in 96-well microplates. The antibiotics vancomycin and linezolid (Sigma-Aldrich, St. Louis, MO, USA) were used as a positive control. Bacterial suspensions of the tested MRSA strains were prepared in the Mueller Hinton broth (BD) with a concentration 1 × 10^6 CFU/mL, and then 50 µL aliquots were added to the prepared microplates. The final concentrations of the antibiotics in the wells were 1, 0.5, 0.25, and 0.125 mg/L, for the tested compounds, and 2 mg/L for vancomycin and linezolid. Negative control (lack of bacterial cells) and growth control (lack of compound) wells were included in all plates. The microplates were incubated at 37 °C for 18 h. The growth was assessed visually after incubation, and the MIC was assumed as the lowest compound concentration at which a noticeable growth of the microorganisms was inhibited (no visible growth). All experiments were conducted in triplicate.
# cytochrome P450 2C8 = target: T1, cytochrome P450 2C8 (Homo sapiens, UniProt P10632); assay: Inhibition of cytochrome P450 isoform activity in human liver microsomes; type: in vitro ADME; details: N/A: no inhibition, tested 0.0046–10 μM
# T1 construct: was investigated using human liver microsomes (XenoTech, USA); tissue XenoTech; host or cells: human liver microsomes
# T1 sequence (P10632 1-490): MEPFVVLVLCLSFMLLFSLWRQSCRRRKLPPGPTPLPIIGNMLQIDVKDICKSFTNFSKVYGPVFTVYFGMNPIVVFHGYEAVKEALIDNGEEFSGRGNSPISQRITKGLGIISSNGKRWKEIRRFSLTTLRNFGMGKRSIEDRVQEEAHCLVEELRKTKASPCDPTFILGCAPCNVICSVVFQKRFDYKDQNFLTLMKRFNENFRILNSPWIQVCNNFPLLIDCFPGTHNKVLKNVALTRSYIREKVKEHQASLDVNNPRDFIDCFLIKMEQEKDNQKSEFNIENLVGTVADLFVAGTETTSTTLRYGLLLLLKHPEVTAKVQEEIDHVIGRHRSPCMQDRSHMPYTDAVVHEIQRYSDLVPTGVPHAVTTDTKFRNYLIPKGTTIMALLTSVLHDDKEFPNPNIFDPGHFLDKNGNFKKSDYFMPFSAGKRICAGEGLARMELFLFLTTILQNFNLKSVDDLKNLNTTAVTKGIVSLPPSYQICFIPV
# Method: The effect of the tested compound on the activity of the main isoforms of human liver cytochrome P450 (1A2, 2C9, 2C19, 2D6, 3A4, 2C8) was investigated using human liver microsomes (XenoTech, USA) and their corresponding substrates: phenacetin, testosterone, tolbutamide, S-mephenytoin, dextromethorphan hydrobromide, and amodiaquine dihydrochloride dihydrate (Sigma-Aldrich, USA).
# […]. The reaction was stopped after 20 min by adding acetonitrile. The resulting metabolites were detected using UPLC–MS/MS. The calculation of the IC50 half-maximal inhibition concentration values was performed in the GraphPad Prism 6.0 (GraphPad Software Inc., USA) program, based on the equations of the experimental curves.
# [4] = read-out: Solubility in water, mass concentration
# [5] = read-out: Solubility in water, molar concentration
# [6] = Figure 6, MRSA strain 2, read-out: MIC against 8 MRSA strains
# [7] = Figure 6, MRSA strain 7, read-out: MIC against 8 MRSA strains
# [8] = Figure 6, MRSA strain 8, read-out: MIC against 8 MRSA strains
# [9] = Figure 6, MRSA strain 9, read-out: MIC against 8 MRSA strains
# [10] = Figure 6, MRSA strain 13, read-out: MIC against 8 MRSA strains
# [11] = Figure 6, MRSA strain 21, read-out: MIC against 8 MRSA strains
# [12] = Figure 6, MRSA strain 48, read-out: MIC against 8 MRSA strains
# [13] = Figure 6, MRSA strain 50, read-out: MIC against 8 MRSA strains
compound,measurement,setting,value
"CCOC(=O)c1[nH]c2cc(F)ccc2c1/N=N/N1CCC(C)CC1 [BX-SI045, Ethyl (E)-6-fluoro-3-((4-methylpiperidin-1-yl)diazenyl)-1H-indole-2-carboxylate]",IC50,[1],22 µg/mL
same,IC50,[2],29 µg/mL
same,Selectivity Index,MRSA,74
same,solubility at 5 min,[3]; [4],2.77 µg/mL
same,solubility at 5 min,[3]; [5],10 µM
same,MIC Range Against 8 MRSA Strains,MRSA clinical isolates,0.25 to 0.5 µg/mL
same,MIC,"MRSA clinical isolates; 8 MRSA strains, read-out: lowest MIC values against most tested strains",0.25 µg/mL
same,MIC,MRSA clinical isolates; [6],0.5 µg/mL
same,MIC,MRSA clinical isolates; [7],0.5 µg/mL
same,MIC,MRSA clinical isolates; [8],0.25 µg/mL
same,MIC,MRSA clinical isolates; [9],0.25 µg/mL
same,MIC,MRSA clinical isolates; [10],0.5 µg/mL
same,MIC,MRSA clinical isolates; [11],0.25 µg/mL
same,MIC,MRSA clinical isolates; [12],0.25 µg/mL
same,MIC,MRSA clinical isolates; [13],0.25 µg/mL
"CCOC(=O)c1[nH]c2cc(F)ccc2c1/N=N/N(C)CCc1ccccn1 [BX-SI048, Ethyl (E)-6-fluoro-3-(3-methyl-3-(2-(pyridin-2-yl)ethyl)triaz-1-en-1-yl)-1H-indole-2-carboxylate]",IC50,[1],22 µg/mL
same,IC50,[2],13 µg/mL
same,Selectivity Index,MRSA,28
same,solubility at 5 min,[3]; [4],34.9 µg/mL
same,solubility at 5 min,[3]; [5],90 µM
same,MIC Range Against 8 MRSA Strains,MRSA clinical isolates,0.5 to 1 µg/mL
same,MIC,MRSA clinical isolates; [6],1 µg/mL
same,MIC,MRSA clinical isolates; [7],0.5 µg/mL
same,MIC,MRSA clinical isolates; [8],0.5 µg/mL
same,MIC,MRSA clinical isolates; [9],1 µg/mL
same,MIC,MRSA clinical isolates; [10],0.5 µg/mL
same,MIC,MRSA clinical isolates; [11],0.5 µg/mL
same,MIC,MRSA clinical isolates; [12],0.5 µg/mL
same,MIC,MRSA clinical isolates; [13],0.5 µg/mL
"CCOC(=O)c1[nH]c2cc(F)ccc2c1/N=N/N(C)CCN(C)C [BX-SI044, Ethyl (E)-3-(3-(2-(dimethylamino)ethyl)-3-methyltriaz-1-en-1-yl)-6-fluoro-1H-indole-2-carboxylate]",IC50 HepG2,[1]; 24 h,13 µg/mL
same,IC50 HEF,[2],19 µg/mL
same,Selectivity Index,MRSA,27
same,"Solubility in water, mass concentration",[3],17.55 µg/mL
same,MIC Range Against 8 MRSA Strains,MRSA clinical isolates,0.25 to 1 µg/mL
"CCOC(=O)c1[nH]c2cc(F)ccc2c1/N=N/N1CCCN(C)CC1 [BX-SI039, Ethyl (E)-6-fluoro-3-((4-methyl-1,4-diazepan-1-yl)diazenyl)-1H-indole-2-carboxylate]",IC50,[1],16 µg/mL
same,IC50,[2],19 µg/mL
same,Selectivity Index,MRSA,20
same,solubility at 5 min,[3]; [4],33.1 µg/mL
same,solubility at 5 min,[3]; [5],90 µM
same,MIC Range Against 8 MRSA Strains,MRSA clinical isolates,0.5 to 1 µg/mL
same,MIC,MRSA clinical isolates; [6],1 µg/mL
same,MIC,MRSA clinical isolates; [7],1 µg/mL
same,MIC,MRSA clinical isolates; [8],1 µg/mL
same,MIC,MRSA clinical isolates; [9],1 µg/mL
same,MIC,MRSA clinical isolates; [10],1 µg/mL
same,MIC,MRSA clinical isolates; [11],0.5 µg/mL
same,MIC,MRSA clinical isolates; [12],1 µg/mL
same,MIC,MRSA clinical isolates; [13],0.5 µg/mL
"CCOC(=O)c1[nH]c2cc(F)ccc2c1/N=N/N1CCN(C)CC1 [BX-SI035, Ethyl ester ethyl (E)-6-fluoro-3-((4-methylpiperazin-1-yl)diazenyl)-1H-indole-2-carboxylate]",IC50,[1],21 µg/mL
same,IC50,[2],20 µg/mL
same,Selectivity Index,MRSA,41
same,solubility at 5 min,[3]; [4],11.7 µg/mL
same,solubility at 5 min,[3]; [5],350 µM
same,MIC Range Against 8 MRSA Strains,MRSA clinical isolates,0.5 µg/mL
same,MIC,MRSA clinical isolates; [6],0.5 µg/mL
same,MIC,MRSA clinical isolates; [7],0.5 µg/mL
same,MIC,MRSA clinical isolates; [8],0.5 µg/mL
same,MIC,MRSA clinical isolates; [9],0.5 µg/mL
same,MIC,MRSA clinical isolates; [10],0.5 µg/mL
same,MIC,MRSA clinical isolates; [11],0.5 µg/mL
same,MIC,MRSA clinical isolates; [12],0.5 µg/mL
same,MIC,MRSA clinical isolates; [13],0.5 µg/mL
"O=c1c(O)c(-c2ccc(O)c(O)c2)oc2cc(O)cc(O)c12 [Quercetin, quercetin]",IC50,cytochrome P450 2C8,2.6 µM
